US11999727B2 (Tango Therapeutics, Inc., priority 2020, dated 2024)

Columns and labels:
[1] = system: HAP1 MTAP-intact cell line; experiment: SDMA in-cell western assay, HAP1 MTAP-intact; format: cell-based; conditions: Homo sapiens, HAP1, SDMA in-cell western, HAP1 MTAP-intact; read-out: MTAP HAP1 intact IC50
Summary of the method: (§1)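 Isogenic HAP1 pair: the MTAP-intact line expresses endogenous MTAP, and the deleted line is MTAP-null. Symmetric dimethylarginine was detected by in-cell western and IC50 values derived for each line.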

PRMT5 [2] = target: T1, PRMT5 (Homo sapiens, UniProt O14744); experiment: PRMT5 biochemical IC50 assay with MTA as cofactor; conditions: PRMT5, MTA as cofactor; read-out: MTA IC50
T1 construct: purchased Viva (custom protein)

PRMT5 [3] = target: T1, PRMT5; experiment: PRMT5 biochemical IC50 assay with no cofactor; conditions: PRMT5, no cofactor; read-out: No Cofactor/rel IC50
Description: Table 1 indicates IC50 values (μM) against PRMT5 for exemplary compounds in the presence of SAM as cofactor, with no cofactor, and with MTA as cofactor, respectively (columns 4-6). […] Ki values can be calculated from the IC50 values as described in the Examples section. As detailed in the Examples section, for the assay performed in the presence of SAM, IC50=Ki×1.5 (Ki=IC50/1.5).

[4] = system: HAP1 MTAP-deleted cell line; experiment: Viability assay, MTAP-deleted cell line; format: cell-based; conditions: Homo sapiens, HAP1, viability assay, MTAP-deleted cell line; read-out: HAP1 MTAP deleted viability
Description: Table 1 additionally indicates IC50 values in a viability assay for the MTAP-deleted cell line (column 10), indicating the effect of treatment with compound on cell survival.

[5] = system: HAP1 MTAP-deleted cell line; experiment: SDMA in-cell western assay, HAP1 MTAP-deleted; format: cell-based; conditions: for IC50: Homo sapiens, HAP1, SDMA in-cell western, HAP1 MTAP-deleted, read-out: HAP 1 MTAP deleted IC50; for MTAP intact/deleted ratio: IC50 ratio HAP1 MTAP-intact / HAP1 MTAP-deleted, SDMA in-cell western
Summary of the method: as §1

PRMT5 [6] = target: T1, PRMT5; experiment: PRMT5 biochemical IC50 assay with SAM as cofactor; conditions: PRMT5, SAM as cofactor; read-out: SAM IC50

T1 sequence (O14744 whole entry): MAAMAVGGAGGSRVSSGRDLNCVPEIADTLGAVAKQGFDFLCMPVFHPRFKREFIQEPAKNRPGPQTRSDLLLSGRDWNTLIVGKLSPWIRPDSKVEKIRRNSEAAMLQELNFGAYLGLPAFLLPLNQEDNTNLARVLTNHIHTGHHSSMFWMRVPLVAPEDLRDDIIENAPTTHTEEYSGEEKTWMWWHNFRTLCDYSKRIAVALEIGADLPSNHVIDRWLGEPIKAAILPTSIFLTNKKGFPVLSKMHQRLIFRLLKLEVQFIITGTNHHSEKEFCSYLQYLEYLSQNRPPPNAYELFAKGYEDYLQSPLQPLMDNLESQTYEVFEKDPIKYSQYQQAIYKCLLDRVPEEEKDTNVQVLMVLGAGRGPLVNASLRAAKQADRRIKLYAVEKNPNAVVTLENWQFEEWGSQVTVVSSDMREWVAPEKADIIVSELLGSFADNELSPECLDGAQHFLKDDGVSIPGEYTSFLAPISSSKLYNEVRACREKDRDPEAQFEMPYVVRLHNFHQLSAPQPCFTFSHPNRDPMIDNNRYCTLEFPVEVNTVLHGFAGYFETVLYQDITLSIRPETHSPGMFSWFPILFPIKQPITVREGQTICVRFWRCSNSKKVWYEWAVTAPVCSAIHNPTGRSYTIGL
T1 sequence (Q9BQA1 whole entry partner): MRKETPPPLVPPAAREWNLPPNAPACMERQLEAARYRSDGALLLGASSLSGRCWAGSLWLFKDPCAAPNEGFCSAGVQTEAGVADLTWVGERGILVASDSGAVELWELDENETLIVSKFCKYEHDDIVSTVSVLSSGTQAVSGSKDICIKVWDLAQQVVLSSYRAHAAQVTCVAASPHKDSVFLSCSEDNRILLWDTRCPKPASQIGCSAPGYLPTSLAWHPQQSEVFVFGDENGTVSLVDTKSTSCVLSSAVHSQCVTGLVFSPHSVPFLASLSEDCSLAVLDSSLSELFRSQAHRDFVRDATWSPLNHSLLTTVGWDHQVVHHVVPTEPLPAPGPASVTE

| SMILES | IC50 [1] [nM] | IC50 (PRMT5 [2]) [nM] | IC50 (PRMT5 [3]) [nM] | IC50 [4] [nM] | IC50 [5] [nM] | MTAP intact/deleted ratio [5] | IC50 (PRMT5 [6]) [nM] |
| --- | --- | --- | --- | --- | --- | --- | --- |
| CC(=O)Nc1ccc([C@@H]2CC[C@@H](C)CN2C(=O)C(=O)Nc2cncc(C(N)=O)c2)cn1 (single isomer, unassigned) [Compound 934] | > 1000 | < 50 | 50 to 500 | > 10000 | 100 to 1000 | A (an IC50 ratio greater than or equal to 10 fold) | 50 to 500 |
| CCc1cc(NC(=O)C(=O)N2C[C@H](C)C(F)(F)C[C@H]2c2ccc(C)nc2)cnc1N (single isomer, unassigned) [Compound 935] | > 1000 | > 500 | > 500 | > 10000 | > 1000 | C (an IC50 ratio of less than 3 fold) | > 500 |
| COc1ncc(NC(=O)C(=O)N2C[C@H](C)C(F)(F)C[C@H]2c2ccc(C)nc2)cc1C(N)=O (single isomer, unassigned) [Compound 936] | > 1000 | > 500 | > 500 | > 10000 | > 1000 | C (an IC50 ratio of less than 3 fold) | > 500 |
| Cc1cc(NC(=O)C(=O)N2C[C@@H](C)CC[C@@H]2c2cn[nH]c2)cnc1N (single isomer, unassigned) [Compound 941] | 100 to 1000 | < 50 | < 50 | 1000 to 10000 | < 100 | B (an IC50 ratio greater than or equal to 3 fold but lower than 10 fold) | 50 to 500 |
| C[C@H]1CC[C@H](c2cn[nH]c2)N(C(=O)C(=O)Nc2cncc(C(N)=O)c2)C1 (single isomer, unassigned) [Compound 942] | > 1000 | < 50 | 50 to 500 | > 10000 | 100 to 1000 | A (an IC50 ratio greater than or equal to 10 fold) | 50 to 500 |
| C[C@@H]1CC[C@@H](c2cc3cn[nH]c3s2)N(C(=O)C(=O)Nc2cncc(C(N)=O)c2)C1 (single isomer, unassigned) [Compound 943, 5-(2-(5-methyl-2-(1H-thieno[2,3-c]pyrazol-5-yl)piperidin-1-yl)-2-oxoacetamido)nicotinamide] | 100 to 1000 | < 50 | < 50 | < 1000 | < 100 | A (an IC50 ratio greater than or equal to 10 fold) | 50 to 500 |
| Cc1ccc([C@@H]2CC(F)(F)[C@@H](C)CN2C(=O)C(=O)Nc2cnc(N)c(C)c2)cn1 (single isomer, unassigned) [Compound 944] | > 1000 | > 500 | > 500 | > 10000 | > 1000 | C (an IC50 ratio of less than 3 fold) | > 500 |
| COc1ncc(NC(=O)C(=O)N2C[C@@H](C)CC[C@@H]2c2cc(Cl)cc(Cl)c2)cc1C(N)=O (single isomer, unassigned) [Compound 945] | > 1000 | < 50 | 50 to 500 | 1000 to 10000 | < 100 | A (an IC50 ratio greater than or equal to 10 fold) | 50 to 500 |
| Cc1ccc([C@@H]2CC(F)(F)[C@@H](C)CN2C(=O)C(=O)Nc2cncc(C(N)=O)c2)cn1 (single isomer, unassigned) [Compound 946] | > 1000 | > 500 | > 500 | > 10000 | > 1000 | B (an IC50 ratio greater than or equal to 3 fold but lower than 10 fold) | > 500 |
| Cc1nc2cc([C@H]3CC[C@H](C)CN3C(=O)C(=O)Nc3cnc(N)c(C)c3)ccc2[nH]1 (single isomer, unassigned) [Compound 947] | 100 to 1000 | < 50 | 50 to 500 | < 1000 | < 100 | A (an IC50 ratio greater than or equal to 10 fold) | 50 to 500 |
| Cc1cc(NC(=O)C(=O)N2C[C@H](C)CC[C@H]2c2ccc3[nH]nc(N)c3c2)cnc1C (single isomer, unassigned) [Compound 948] | > 1000 | < 50 | 50 to 500 | < 1000 | < 100 | A (an IC50 ratio greater than or equal to 10 fold) | 50 to 500 |
